Experimental data from the supplement of paper PMC11616607.

Tests used:
Test in all cases: drug sensitivity score (DSS) from 5-point dose-response viability curve (DSS (area-under-curve based score)); higher = more sensitive (stronger growth inhibition or killing); extreme values may be limits of the assay
Details in all cases: exposure time: 72 h; concentration range: 5 concentrations over 10,000-fold range
[1] = system: CAOV3
Procedure, shortened: (§1)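 For the drug sensitivity score, obtained per cell line and drug in Breeze software, larger values mean greater sensitivity. No response corresponds to a score of zero. Ovarian cancer and normal ovarian cells were seeded at 1,500 per well into 384-well plates already holding acoustically dispensed drugs (Echo 550, DMSO or water, five concentrations over a 10,000-fold range) and incubated 3 days at 37°C, 5% CO2. CellTiter-Glo luminescence on a PHERAstar FS gave the viability readout.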

[2] = system: COV318
Procedure, shortened: as §1

[3] = system: COV362
Procedure, shortened: as §1

[4] = system: HOSE1C
Procedure, shortened: as §1

[5] = system: HOSE2C
Procedure, shortened: as §1

[6] = system: JHOS2
Procedure, shortened: as §1

[7] = system: Kuramochi
Procedure, shortened: as §1

[8] = system: OV90
Procedure, shortened: as §1

[9] = system: OVCAR4
Procedure, shortened: as §1

[10] = system: OVCAR5
Procedure, shortened: as §1

[11] = system: OVCAR8
Procedure, shortened: as §1

[12] = system: Ovsaho
Procedure, shortened: as §1

O=C(Nc1cc(Cl)cc2c1[nH]c1cnccc12)c1cccnc1 [PS-1145]
drug sensitivity score [1]: 0
drug sensitivity score [2]: 0
drug sensitivity score [3]: 0
drug sensitivity score [4]: 0
drug sensitivity score [5]: 0
drug sensitivity score [6]: 0
drug sensitivity score [7]: 0.6
drug sensitivity score [8]: 1
drug sensitivity score [9]: 0.3
drug sensitivity score [10]: 1.6
drug sensitivity score [11]: 0
drug sensitivity score [12]: 0

COc1cc(Br)c(Nc2nc(-c3c(C)nc4ncccn34)cs2)c(Br)c1 [PTC-209]
drug sensitivity score [1]: 4.1
drug sensitivity score [2]: 2.1
drug sensitivity score [3]: 0.6
drug sensitivity score [4]: 8.1
drug sensitivity score [5]: 9.6
drug sensitivity score [6]: 6.2
drug sensitivity score [7]: 2.7
drug sensitivity score [8]: 9.8
drug sensitivity score [9]: 3.1
drug sensitivity score [10]: 3.5
drug sensitivity score [11]: 4.5
drug sensitivity score [12]: 1.3

CC(=O)O[C@H]1C(=O)[C@@]2(C)[C@H]([C@H](OC(=O)c3ccccc3)[C@]3(O)C[C@H](OC(=O)[C@H](O)[C@@H](NC(=O)c4ccccc4)c4ccccc4)C(C)=C1C3(C)C)[C@]1(OC(C)=O)CO[C@@H]1C[C@@H]2O [Paclitaxel]
drug sensitivity score [1]: 25.9
drug sensitivity score [2]: 5.7
drug sensitivity score [3]: 8.9
drug sensitivity score [4]: 25.1
drug sensitivity score [5]: 25
drug sensitivity score [6]: 14.4
drug sensitivity score [7]: 13.8
drug sensitivity score [8]: 14.9
drug sensitivity score [9]: 7.8
drug sensitivity score [10]: 21.4
drug sensitivity score [11]: 27.6
drug sensitivity score [12]: 11.8

C1=N/C2=N/c3ccc(OCCN4CCCC4)c(c3)COC/C=C/COCc3cccc(c3)C(=C1)N2 [Pacritinib]
drug sensitivity score [1]: 7.6
drug sensitivity score [2]: 5.3
drug sensitivity score [3]: 6.2
drug sensitivity score [4]: 8.2
drug sensitivity score [5]: 8.2
drug sensitivity score [6]: 7.5
drug sensitivity score [7]: 6.5
drug sensitivity score [8]: 10.5
drug sensitivity score [9]: 6.8
drug sensitivity score [10]: 9.4
drug sensitivity score [11]: 7.8
drug sensitivity score [12]: 8

CC(=O)c1c(C)c2cnc(Nc3ccc(N4CCNCC4)cn3)nc2n(C2CCCC2)c1=O [Palbociclib]
drug sensitivity score [1]: 0.1
drug sensitivity score [2]: 3.2
drug sensitivity score [3]: 1
drug sensitivity score [4]: 4.5
drug sensitivity score [5]: 2.9
drug sensitivity score [6]: 6.3
drug sensitivity score [7]: 1.4
drug sensitivity score [8]: 0.8
drug sensitivity score [9]: 0.1
drug sensitivity score [10]: 3.6
drug sensitivity score [11]: 0.5
drug sensitivity score [12]: 3

COc1ccc(COc2cc3oc(=O)c4cc(C(C)O)ccc4c3cc2OC)cc1 (configuration not stated) [Palomid-529]
drug sensitivity score [1]: 0
drug sensitivity score [2]: 1.2
drug sensitivity score [3]: 0
drug sensitivity score [4]: 0
drug sensitivity score [5]: 0
drug sensitivity score [6]: 0
drug sensitivity score [7]: 0.1
drug sensitivity score [8]: 0.8
drug sensitivity score [9]: 0.6
drug sensitivity score [10]: 0
drug sensitivity score [11]: 0
drug sensitivity score [12]: 0.1

Cc1[nH]c2ccccc2c1CCNCc1ccc(/C=C/C(=O)NO)cc1 [Panobinostat]
drug sensitivity score [1]: 14.5
drug sensitivity score [2]: 10.6
drug sensitivity score [3]: 5.8
drug sensitivity score [4]: 24.1
drug sensitivity score [5]: 21.1
drug sensitivity score [6]: 13.1
drug sensitivity score [7]: 15.3
drug sensitivity score [8]: 18.2
drug sensitivity score [9]: 13.5
drug sensitivity score [10]: 23.3
drug sensitivity score [11]: 21.4
drug sensitivity score [12]: 10.8

Cc1ccc(Nc2nccc(N(C)c3ccc4c(C)n(C)nc4c3)n2)cc1S(N)(=O)=O [Pazopanib]
drug sensitivity score [1]: 0
drug sensitivity score [2]: 0.1
drug sensitivity score [3]: 0
drug sensitivity score [4]: 0
drug sensitivity score [5]: 0
drug sensitivity score [6]: 0
drug sensitivity score [7]: 0
drug sensitivity score [8]: 0
drug sensitivity score [9]: 0
drug sensitivity score [10]: 0
drug sensitivity score [11]: 0
drug sensitivity score [12]: 0

Nc1nc2[nH]cc(CCc3ccc(C(=O)N[C@@H](CCC(=O)O)C(=O)O)cc3)c2c(=O)[nH]1 [Pemetrexed]
drug sensitivity score [1]: 14.1
drug sensitivity score [2]: 0
drug sensitivity score [3]: 12.7
drug sensitivity score [4]: 22.9
drug sensitivity score [5]: 20.4
drug sensitivity score [6]: 0
drug sensitivity score [7]: 5.8
drug sensitivity score [8]: 3.7
drug sensitivity score [9]: 4.2
drug sensitivity score [10]: 7.6
drug sensitivity score [11]: 18.2
drug sensitivity score [12]: 6.1

OC[C@H]1O[C@@H](n2cnc3c2N=CNC[C@H]3O)C[C@@H]1O [Pentostatin]
drug sensitivity score [1]: 0
drug sensitivity score [2]: 0
drug sensitivity score [3]: 0
drug sensitivity score [4]: 0
drug sensitivity score [5]: 1.5
drug sensitivity score [6]: 0
drug sensitivity score [7]: 0
drug sensitivity score [8]: 0
drug sensitivity score [9]: 0
drug sensitivity score [10]: 0
drug sensitivity score [11]: 0
drug sensitivity score [12]: 0

CCCCCCCCCCCCCCCCCCOP(=O)([O-])OC1CC[N+](C)(C)CC1 [Perifosine]
drug sensitivity score [1]: 0
drug sensitivity score [2]: 0
drug sensitivity score [3]: 0
drug sensitivity score [4]: 0
drug sensitivity score [5]: 0
drug sensitivity score [6]: 0
drug sensitivity score [7]: 0
drug sensitivity score [8]: 0
drug sensitivity score [9]: 0
drug sensitivity score [10]: 0
drug sensitivity score [11]: 0
drug sensitivity score [12]: 0

NS(=O)(=O)OC[C@@H]1C[C@@H](n2ccc3c(N[C@H]4CCc5ccccc54)ncnc32)C[C@@H]1O [Pevonedistat]
drug sensitivity score [1]: 25.6
drug sensitivity score [2]: 3.5
drug sensitivity score [3]: 8.7
drug sensitivity score [4]: 17.2
drug sensitivity score [5]: 22.6
drug sensitivity score [6]: 15
drug sensitivity score [7]: 7.8
drug sensitivity score [8]: 16.2
drug sensitivity score [9]: 2.6
drug sensitivity score [10]: 6.3
drug sensitivity score [11]: 16.3
drug sensitivity score [12]: 6.1

FC(F)(F)c1ccc(CNc2ccc(Cc3c[nH]c4ncc(Cl)cc34)cn2)cn1 [Pexidartinib]
drug sensitivity score [1]: 0.8
drug sensitivity score [2]: 0.7
drug sensitivity score [3]: 0
drug sensitivity score [4]: 0
drug sensitivity score [5]: 0
drug sensitivity score [6]: 5
drug sensitivity score [7]: 0.6
drug sensitivity score [8]: 0.7
drug sensitivity score [9]: 1.3
drug sensitivity score [10]: 2.3
drug sensitivity score [11]: 1.8
drug sensitivity score [12]: 0.1

CS(=O)(=O)N1CCN(Cc2cc3nc(-c4cccc5[nH]ncc45)nc(N4CCOCC4)c3s2)CC1 [Pictilisib]
drug sensitivity score [1]: 9.8
drug sensitivity score [2]: 5.3
drug sensitivity score [3]: 5.9
drug sensitivity score [4]: 6.8
drug sensitivity score [5]: 8.2
drug sensitivity score [6]: 3.8
drug sensitivity score [7]: 10.6
drug sensitivity score [8]: 6.2
drug sensitivity score [9]: 5.3
drug sensitivity score [10]: 12.1
drug sensitivity score [11]: 8.3
drug sensitivity score [12]: 9.5

CC[C@@H]1C(=O)OC[C@@H]1Cc1cncn1C [Pilocarpine]
drug sensitivity score [1]: 0
drug sensitivity score [2]: 0
drug sensitivity score [3]: 0
drug sensitivity score [4]: 0
drug sensitivity score [5]: 0
drug sensitivity score [6]: 0.5
drug sensitivity score [7]: 0
drug sensitivity score [8]: 0
drug sensitivity score [9]: 0
drug sensitivity score [10]: 0
drug sensitivity score [11]: 0
drug sensitivity score [12]: 0

CC(C)N(C[C@H]1O[C@@H](n2cnc3c(N)ncnc32)[C@H](O)[C@@H]1O)[C@H]1C[C@@H](CCc2nc3cc(C(C)(C)C)ccc3[nH]2)C1 [Pinometostat]
drug sensitivity score [1]: 0
drug sensitivity score [2]: 0
drug sensitivity score [3]: 0
drug sensitivity score [4]: 0
drug sensitivity score [5]: 0
drug sensitivity score [6]: 0
drug sensitivity score [7]: 0
drug sensitivity score [8]: 0
drug sensitivity score [9]: 0
drug sensitivity score [10]: 0
drug sensitivity score [11]: 0
drug sensitivity score [12]: 0

Cc1ccc(=O)n(-c2ccccc2)c1 [Pirfenidone]
drug sensitivity score [1]: 0
drug sensitivity score [2]: 0
drug sensitivity score [3]: 0
drug sensitivity score [4]: 0
drug sensitivity score [5]: 0
drug sensitivity score [6]: 0
drug sensitivity score [7]: 0
drug sensitivity score [8]: 0
drug sensitivity score [9]: 0
drug sensitivity score [10]: 0
drug sensitivity score [11]: 0
drug sensitivity score [12]: 0

NCCNc1ccc(NCCN)c2c1C(=O)c1ccncc1C2=O [Pixantrone]
drug sensitivity score [1]: 0
drug sensitivity score [2]: 0
drug sensitivity score [3]: 0
drug sensitivity score [4]: 0
drug sensitivity score [5]: 0
drug sensitivity score [6]: 0
drug sensitivity score [7]: 0.1
drug sensitivity score [8]: 0.1
drug sensitivity score [9]: 0
drug sensitivity score [10]: 0
drug sensitivity score [11]: 0.4
drug sensitivity score [12]: 0.3

c1cc(CN2CCCNCCNCCCNCC2)ccc1CN1CCCNCCNCCCNCC1 [Plerixafor]
drug sensitivity score [1]: 0
drug sensitivity score [2]: 0
drug sensitivity score [3]: 0
drug sensitivity score [4]: 0
drug sensitivity score [5]: 0
drug sensitivity score [6]: 0
drug sensitivity score [7]: 0
drug sensitivity score [8]: 0
drug sensitivity score [9]: 0
drug sensitivity score [10]: 0
drug sensitivity score [11]: 0
drug sensitivity score [12]: 0

CO[C@H](C(=O)[C@@H](O)[C@@H](C)O)[C@@H]1Cc2cc3cc(O[C@H]4C[C@@H](O[C@@H]5C[C@@H](O)[C@H](O)[C@@H](C)O5)[C@H](O)[C@@H](C)O4)c(C)c(O)c3c(O)c2C(=O)[C@H]1O[C@H]1C[C@@H](O[C@@H]2C[C@@H](O)[C@@H](O[C@@H]3C[C@](C)(O)[C@H](O)[C@@H](C)O3)[C@@H](C)O2)[C@H](O)[C@@H](C)O1 [Plicamycin]
drug sensitivity score [1]: 8.8
drug sensitivity score [2]: 0
drug sensitivity score [3]: 2.9
drug sensitivity score [4]: 0
drug sensitivity score [5]: 0
drug sensitivity score [6]: 0
drug sensitivity score [7]: 0
drug sensitivity score [8]: 19.1
drug sensitivity score [9]: 5.7
drug sensitivity score [10]: 16.5
drug sensitivity score [11]: 19.4
drug sensitivity score [12]: 0.1

Nc1cccc2c1C(=O)N(C1CCC(=O)NC1=O)C2=O (configuration not stated) [Pomalidomide]
drug sensitivity score [1]: 0
drug sensitivity score [2]: 0
drug sensitivity score [3]: 0
drug sensitivity score [4]: 0
drug sensitivity score [5]: 0
drug sensitivity score [6]: 0
drug sensitivity score [7]: 0
drug sensitivity score [8]: 0
drug sensitivity score [9]: 0
drug sensitivity score [10]: 0
drug sensitivity score [11]: 0
drug sensitivity score [12]: 0

Cc1ccc(C(=O)Nc2ccc(CN3CCN(C)CC3)c(C(F)(F)F)c2)cc1C#Cc1cnc2cccnn12 [Ponatinib]
drug sensitivity score [1]: 2.4
drug sensitivity score [2]: 5.7
drug sensitivity score [3]: 4.9
drug sensitivity score [4]: 3.3
drug sensitivity score [5]: 8.5
drug sensitivity score [6]: 3.6
drug sensitivity score [7]: 9.3
drug sensitivity score [8]: 6.9
drug sensitivity score [9]: 5.7
drug sensitivity score [10]: 5.5
drug sensitivity score [11]: 3.3
drug sensitivity score [12]: 7.6

C=CC(=O)N1CCC(Oc2cc3c(Nc4ccc(Cl)c(Cl)c4F)ncnc3cc2OC)CC1 [Poziotinib]
drug sensitivity score [1]: 13.1
drug sensitivity score [2]: 0
drug sensitivity score [3]: 0
drug sensitivity score [4]: 0.4
drug sensitivity score [5]: 0
drug sensitivity score [6]: 0.4
drug sensitivity score [7]: 1.9
drug sensitivity score [8]: 0
drug sensitivity score [9]: 1.3
drug sensitivity score [10]: 3.3
drug sensitivity score [11]: 0
drug sensitivity score [12]: 4.5

CCCCc1nc2cc(/C=C/C(=O)NO)ccc2n1CCN(CC)CC [Pracinostat]
drug sensitivity score [1]: 13.2
drug sensitivity score [2]: 10
drug sensitivity score [3]: 5.1
drug sensitivity score [4]: 22.2
drug sensitivity score [5]: 18.5
drug sensitivity score [6]: 13
drug sensitivity score [7]: 13.5
drug sensitivity score [8]: 14.6
drug sensitivity score [9]: 10.4
drug sensitivity score [10]: 20.9
drug sensitivity score [11]: 19.5
drug sensitivity score [12]: 10.5

CC[C@H](C)C(=O)O[C@H]1C[C@H](O)C=C2C=C[C@H](C)[C@H](CC[C@@H](O)C[C@@H](O)CC(=O)O)[C@H]21 [Pravastatin]
drug sensitivity score [1]: 0
drug sensitivity score [2]: 0
drug sensitivity score [3]: 0
drug sensitivity score [4]: 0
drug sensitivity score [5]: 0
drug sensitivity score [6]: 0
drug sensitivity score [7]: 0
drug sensitivity score [8]: 0
drug sensitivity score [9]: 0
drug sensitivity score [10]: 0
drug sensitivity score [11]: 0
drug sensitivity score [12]: 0

C[C@]12C=CC(=O)C=C1CC[C@@H]1[C@@H]2[C@@H](O)C[C@@]2(C)[C@H]1CC[C@]2(O)C(=O)CO [Prednisolone]
drug sensitivity score [1]: 0
drug sensitivity score [2]: 1.1
drug sensitivity score [3]: 0
drug sensitivity score [4]: 0
drug sensitivity score [5]: 3.3
drug sensitivity score [6]: 0.1
drug sensitivity score [7]: 0
drug sensitivity score [8]: 0.1
drug sensitivity score [9]: 0
drug sensitivity score [10]: 0
drug sensitivity score [11]: 0.1
drug sensitivity score [12]: 0
